Test results as given in patent US8178534B2, “cMET inhibitors” (Takeda Pharmaceutical Company Limited, priority 2008, dated 2012).
pEC50, pIC50: −log10 of the molar value. Where a name gives a salt, the structure may show the parent alone.

What was measured:
EBC1 = assay: Inhibition of cell viability (MTS), EBC1; type: cell-based; conditions: EBC1 cells, 96 hours incubation
How it was run: (§1)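 Cells seeded at 2,000-7,500/well, attached ~24 h, then treated in duplicate with 1:2.5 serial dilutions at 0.5% final DMSO. Viability by MTS; EC50 from non-linear fit after background correction and normalisation to DMSO. MKN45 and EBC1 are cMET-dependent; A549 serves as negative control.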

[1] = molecular target: T1, cMET enzyme (amino acids 1023-1360) (Homo sapiens, UniProt P08581); assay: Determination of inhibition of cMET (capillary electrophoresis, phosphorylated peptide product); type: biochemical; conditions: 1.2 nM cMET, 50 μM ATP, 2 μM FL-2 peptide, 2 hours room temperature
T1 construct: The cMET enzyme (amino acids 1023-1360) nominally at 24 μM was held at −80° C. until use; His tag (N, cleaved yes); made in house; host or cells: Sf9 cells

A549 = assay: Inhibition of cell viability (MTS), A549 (negative control line); type: cell-based; conditions: A549 cells (negative control), 96 hours incubation
How it was run: as §1

MKN45 = assay: Inhibition of cell viability (MTS), MKN45; type: cell-based; conditions: MKN45 cells, 96 hours incubation
How it was run: as §1

T1 sequence (P08581 1023-1360): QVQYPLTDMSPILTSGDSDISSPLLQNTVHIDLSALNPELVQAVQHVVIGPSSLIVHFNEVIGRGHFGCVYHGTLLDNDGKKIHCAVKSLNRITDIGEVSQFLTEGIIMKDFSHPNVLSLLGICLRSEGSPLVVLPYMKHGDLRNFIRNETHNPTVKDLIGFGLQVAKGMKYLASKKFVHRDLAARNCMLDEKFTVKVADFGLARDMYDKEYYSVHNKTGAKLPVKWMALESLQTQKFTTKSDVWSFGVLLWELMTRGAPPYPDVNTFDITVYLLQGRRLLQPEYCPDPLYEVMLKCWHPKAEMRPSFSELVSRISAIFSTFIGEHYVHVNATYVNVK

melting point | pIC50 [1] | pEC50 (A549) | pEC50 (MKN45) | pEC50 (A549; Homo sapiens, A549, 96 h) | pEC50 (MKN45; Homo sapiens, MKN-45, 96 h) | Compound | pEC50 (EBC1) | pEC50 (EBC1; Homo sapiens, EBC-1, 96 h)
250.2 to 251.6 °C | 7.23 to 7.52 | < 4.30 | > 7.52 | – | – | Cn1cc(-c2ccc3nnn(Cc4ccc5nc(NC(=O)C6CC6)cn5n4)c3c2)cn1 [13 (free base), N-(6-((6-(1-methyl-1H-pyrazol-4-yl)-1H-benzo[d][1,2,3]triazol-1-yl)methyl)imidazo[1,2-b]pyridazin-2-yl)cyclopropanecarboxamide] | > 7.52 | –
182 to 184 °C | – | – | – | – | – | O=C(Nc1cn2nc(Sc3nnc4ccc(-c5cnn(CCO)c5)cn34)ccc2n1)C1CC1 (as salt: HCl) [Compound 32] | – | –
– | > 7.52 | – | – | < 4.30 | > 7.52 | COc1ccc(-c2ccc3nnc(C(C)c4ccc5nc(NC(=O)C6CC6)cn5n4)n3c2)cc1C (centres unmarked) [Compound 70, N-(6-(1-(6-(4-methoxy-3-methylphenyl)-[1,2,4]triazolo[4,3-a]pyridin-3-yl)ethyl)imidazo[1,2-b]pyridazin-2-yl)cyclopropanecarboxamide] | – | > 7.52
– | > 7.52 | – | – | < 4.30 | > 7.52 | NC(=O)c1cccc(-c2ccc3nnc(C(F)(F)c4ccc5nc(NC(=O)C6CC6)cn5n4)n3c2)c1 [Compound 90, 3-(3-((2-(cyclopropanecarboxamido)imidazo[1,2-b]pyridazin-6-yl)difluoromethyl)-[1,2,4]triazolo[4,3-a]pyridin-6-yl)benzamide] | – | > 7.52
